Tests used:
[1] = Functional stability assay in human plasma; details: human plasma, 2 hours
How it was run: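 EPI-X4 derivatives at 20 μM final in pooled human plasma or whole blood (EDTA), incubated at 37 °C with shaking for 2 or 8 h. Residual activity was measured by 12G5-APC antibody competition on CXCR4 and compared with a non-incubated t=0 sample. Blood samples were centrifuged to remove cells before the competition assay.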

[2] = test system: CXCL12 induced Ca2+-signalling; test: Ca++ signaling in BCR-ABL-transformed murine bone marrow cells; type: cell-based; details: 1 μM
Procedure: Fifth, it was shown that the peptide derivatives inhibit calcium-signaling. CXCL12 stimulation of CXCR4 expressing B-cells leads to a strong calcium-release. In the presence of CXCR4 antagonists this response is reduced.
For calcium measurement, 1×10^6 BCR-ABL-transformed murine bone marrow cells were incubated with 5 μg/mL of Indo-1 (Molecular Probes) and 0.5 μg/mL of pluronic F-127 (Molecular Probes) in Iscove's medium supplemented with 1% FCS (Pan Biotech) at 37° C. for 45 min. Cells were then washed by centrifugation and the cell pellets were resuspended in Iscove's medium with 1% FCS and treated with the EPI-X4 derivatives (1 μM or 0.5 μM) for 10 minutes at room temperature. Cells were pre-warmed for 5 minutes at 37° C. Calcium flux was assessed by FACS measurement at BD LSR Fortessa. After 30 seconds of baseline recording, CXCR4-dependent calcium signaling was determined by stimulating with 100 ng/ml of mouse SDF-1a (PeproTech).

[3] = test system: primary CXCR4 AML patient samples; test: Engraftment of primary AML patient samples in NSG mice; type: in vivo
Description: Experimental data support the efficiency of the claimed peptide derivatives against the diseases mentioned above. At the example of JM #21 (SEQ ID NO.: 23) it could be shown that the peptides counteract growth and migration in vitro and in vivo of Acute Myeloid Leukemia (AML) cells as well as primary patient material and Waldenström's Macroglobulinemia (WM) cells harboring different WHIM-like CXCR4 mutations. This was accompanied by intrinsic changes suppressing oncogenic MAP kinase signaling of AML and WM cells.

For `CC[C@H](C)[C@H](N)C(=O)N[C@@H](CC(C)C)C(=O)N[C@@H](CCCNC(=N)N)C(=O)N[C@@H](Cc1c[nH]c2ccccc12)C(=O)N[C@@H](CO)C(=O)N[C@@H](CCCNC(=N)N)C(=O)N[C@@H](CCCCN)C(=O)N[C@@H](CC(C)C)C(=O)N1CCC[C@H]1C(=O)N[C@@H](CS)C(=O)N[C@H](C(=O)N[C@@H](CO)C(=O)O)C(C)C` [JM #21], the “remaining (relative) activity after 2 hours of plasma incubation” value [1] was “completely inactive”, the “reduction of CXCL12 induced calcium-signaling” value [2] was “much stronger than the reduction seen for WSC02” and the “engraftment potential of primary CXCR4 AML patient samples” value [3] was “reduced engraftment potential of primary CXCR4 AML patient samples in NSG mice”.
